From ChEMBL document CHEMBL5030558, “Optimization and Evaluation of Novel Antifungal Agents for the Treatment of Fungal Infection” (J Med Chem, 2021)
In brackets after ≈: the same amount, converted by molar mass. Activity calls are given as the source filed them. The rule behind the calls is not given here.

Tests used:
Trichophyton rubrum [1] = assay: Fungicidal activity against Trichophyton rubrum KCCM60450 at 8 times after 24 hrs by time-kill kinetics assay; type: functional, organism-based
[2] = test system: Trichophyton mentagrophytes; assay: Fungicidal activity against Trichophyton mentagrophytes KCCM60449 at 8 times after 24 hrs by time-kill kinetics assay; type: functional, organism-based
Cryptococcus neoformans [3] = assay: Antifungal activity against Cryptococcus neoformans H99 assessed as reduction in fungal growth incubated for 72 hrs by CLSI based broth microdilution method; type: functional
Candida albicans [4] = assay: Antifungal activity against Candida albicans ATCC SC5314 assessed as reduction in fungal growth incubated for 48 hrs by CLSI based broth microdilution method; type: functional
Nakaseomyces glabratus [5] = assay: Antifungal activity against Candida glabrata BG2 assessed as reduction in fungal growth incubated for 48 hrs by CLSI based broth microdilution method; type: functional
Aspergillus fumigatus = assay: Antifungal activity against Aspergillus fumigatus AF293 assessed as reduction in fungal growth incubated for 48 hrs by CLSI based broth microdilution method; type: functional
[6] = Stability in human liver microsomes assessed as parent compound remaining after 30 mins; type: ADME, Microsome; settings: read-out: Stability
[7] = Stability in rat liver microsomes assessed as parent compound remaining after 30 mins; type: ADME, Microsome; settings: microsomes, 0.5 h
[8] = Stability in mouse liver microsomes assessed as parent compound remaining after 30 mins; type: ADME, Microsome; settings: microsomes, 0.5 h
CYP3A4 = CYP3A4 (Homo sapiens, UniProt P08684); assay: Inhibition of CYP3A4 (unknown origin) at 10 uM relative to control; type: ADME
CYP2C19 = CYP2C19 (Homo sapiens, UniProt P33261); assay: Inhibition of CYP2C19 (unknown origin) at 10 uM relative to control; type: ADME
CYP2D6 = CYP2D6 (Homo sapiens, UniProt P10635); assay: Inhibition of CYP2D6 (unknown origin) at 10 uM relative to control; type: ADME
Cytochrome P450 2C9 = Cytochrome P450 2C9 (Homo sapiens, UniProt P11712); assay: Inhibition of CYP2C9 (unknown origin) relative to control; type: ADME
Cytochrome P450 3A4 = Cytochrome P450 3A4 (Homo sapiens, UniProt P08684); assay: Inhibition of CYP3A4 (unknown origin) relative to control; type: ADME
Cytochrome P450 2D6 = Cytochrome P450 2D6 (Homo sapiens, UniProt P10635); assay: Inhibition of CYP2D6 (unknown origin); type: ADME
[9] = Stability in human plasma assessed as parent compound remaining after 30 to 120 mins; type: ADME, cell-free; settings: time 30-120 min
[10] = Stability in rat plasma assessed as parent compound remaining after 30 to 120 mins; type: ADME, cell-free; settings: time 30-120 min
Cryptococcus neoformans [11] = assay: Fungicidal activity against Cryptococcus neoformans H99 at 8 times of MIC after 12 hrs by time-kill kinetics assay; type: functional, organism-based
Trichophyton rubrum [12] = assay: Ex vivo antifungal activity against Trichophyton rubrum KCCM60450 infected in human nail assessed as reduction in ATP level at 10 % w/w after 24 hrs; type: functional; set-up: scale not given: the % may be the effect or the level left
Cryptococcus neoformans [13] = assay: Fungicidal activity against Cryptococcus neoformans H99 at 8 times of MIC after 24 hrs by time-kill kinetics assay; type: functional, organism-based
Candida albicans [14] = assay: Induction of drug resistance in Candida albicans ATCC SC5314 assessed as increase in EZC IC50 at 8 time IC50 after 7 days; type: functional, organism-based; settings: time 7.0 day
Nakaseomyces glabratus [15] = assay: Induction of drug resistance in Candida glabrata BG2 assessed as increase in ECZ IC50 at 8 times IC50 after 4 days; type: functional, organism-based; settings: BG2, 96 h
Candida albicans [16] = assay: Induction of drug resistance in Candida albicans ATCC SC5314 assessed as increase in EZC IC50 at 8 time IC50 after 35 days; type: functional, organism-based; settings: time 35.0 day
Candida albicans [17] = assay: Induction of drug resistant in Candida albicans ATCC SC5314 assessed as increase in EZC IC50 at 16 times IC50; type: functional, organism-based
Nakaseomyces glabratus [18] = assay: Induction of drug resistant in Candida glabrata BG2 assessed as increase in EZC IC50 at 16 times IC50; type: functional, organism-based
Candida albicans [19] = assay: Induction of drug resistance in Candida albicans ATCC SC5314 assessed as increase in FCZ IC50 at 8 times IC50 measured after 5 to 22 days; type: functional, organism-based
Nakaseomyces glabratus [20] = assay: Induction of drug resistance in Candida glabrata BG2 assessed as increase in FCZ IC50 at 8 times IC50 after 23 days; type: functional, organism-based; settings: BG2, 552 h
Candida albicans [21] = assay: Induction of drug resistant in Candida albicans ATCC SC5314 assessed as increase in FCZ IC50 at 16 times IC50; type: functional, organism-based
Nakaseomyces glabratus [22] = assay: Induction of drug resistant in Candida glabrata BG2 assessed as increase in FCZ IC50 at 16 times IC50; type: functional, organism-based

Sequence of Cytochrome P450 3A4 (P08684 whole entry): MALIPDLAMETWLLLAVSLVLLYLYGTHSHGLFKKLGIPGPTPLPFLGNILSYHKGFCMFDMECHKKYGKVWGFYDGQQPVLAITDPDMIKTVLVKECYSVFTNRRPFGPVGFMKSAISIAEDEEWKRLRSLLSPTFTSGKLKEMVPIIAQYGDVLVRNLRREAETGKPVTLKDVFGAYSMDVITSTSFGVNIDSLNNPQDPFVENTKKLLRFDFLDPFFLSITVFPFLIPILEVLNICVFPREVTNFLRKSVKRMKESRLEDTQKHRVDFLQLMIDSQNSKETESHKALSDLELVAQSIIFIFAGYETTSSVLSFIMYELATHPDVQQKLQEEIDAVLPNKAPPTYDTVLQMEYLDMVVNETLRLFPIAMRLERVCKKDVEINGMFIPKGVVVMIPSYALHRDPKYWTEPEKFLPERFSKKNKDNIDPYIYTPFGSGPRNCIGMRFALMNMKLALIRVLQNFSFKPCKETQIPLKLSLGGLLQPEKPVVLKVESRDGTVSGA
Sequence of Cytochrome P450 2C9 (P11712 whole entry): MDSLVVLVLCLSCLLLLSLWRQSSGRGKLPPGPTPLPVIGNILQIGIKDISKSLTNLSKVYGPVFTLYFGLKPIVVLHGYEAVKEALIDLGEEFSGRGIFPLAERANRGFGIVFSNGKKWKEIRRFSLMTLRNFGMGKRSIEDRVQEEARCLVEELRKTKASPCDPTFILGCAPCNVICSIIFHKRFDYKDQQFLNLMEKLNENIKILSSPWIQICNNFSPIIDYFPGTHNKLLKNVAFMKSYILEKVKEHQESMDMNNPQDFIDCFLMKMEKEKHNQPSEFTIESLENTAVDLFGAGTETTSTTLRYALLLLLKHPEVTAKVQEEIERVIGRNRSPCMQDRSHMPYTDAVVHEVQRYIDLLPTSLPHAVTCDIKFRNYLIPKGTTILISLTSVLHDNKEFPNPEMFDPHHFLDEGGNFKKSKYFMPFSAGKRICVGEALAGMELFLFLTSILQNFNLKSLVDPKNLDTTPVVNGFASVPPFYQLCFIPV
Sequence of CYP3A4 (P08684 whole entry): as the sequence (P08684 whole entry) above
Sequence of CYP2C19 (P33261 whole entry): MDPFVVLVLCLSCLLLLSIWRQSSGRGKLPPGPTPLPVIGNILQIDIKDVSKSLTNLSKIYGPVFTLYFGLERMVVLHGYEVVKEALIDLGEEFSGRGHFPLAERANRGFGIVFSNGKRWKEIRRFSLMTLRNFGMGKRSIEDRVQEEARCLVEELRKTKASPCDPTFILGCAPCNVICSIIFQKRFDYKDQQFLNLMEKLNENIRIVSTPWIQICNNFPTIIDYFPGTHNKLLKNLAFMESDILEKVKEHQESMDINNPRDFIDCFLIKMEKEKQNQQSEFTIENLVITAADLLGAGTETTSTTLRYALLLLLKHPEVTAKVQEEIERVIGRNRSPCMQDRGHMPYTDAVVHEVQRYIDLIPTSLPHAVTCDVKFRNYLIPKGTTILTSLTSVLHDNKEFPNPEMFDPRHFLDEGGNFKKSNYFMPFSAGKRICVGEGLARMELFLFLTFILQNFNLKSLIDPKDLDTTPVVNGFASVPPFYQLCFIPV
Sequence of CYP2D6 (P10635 whole entry): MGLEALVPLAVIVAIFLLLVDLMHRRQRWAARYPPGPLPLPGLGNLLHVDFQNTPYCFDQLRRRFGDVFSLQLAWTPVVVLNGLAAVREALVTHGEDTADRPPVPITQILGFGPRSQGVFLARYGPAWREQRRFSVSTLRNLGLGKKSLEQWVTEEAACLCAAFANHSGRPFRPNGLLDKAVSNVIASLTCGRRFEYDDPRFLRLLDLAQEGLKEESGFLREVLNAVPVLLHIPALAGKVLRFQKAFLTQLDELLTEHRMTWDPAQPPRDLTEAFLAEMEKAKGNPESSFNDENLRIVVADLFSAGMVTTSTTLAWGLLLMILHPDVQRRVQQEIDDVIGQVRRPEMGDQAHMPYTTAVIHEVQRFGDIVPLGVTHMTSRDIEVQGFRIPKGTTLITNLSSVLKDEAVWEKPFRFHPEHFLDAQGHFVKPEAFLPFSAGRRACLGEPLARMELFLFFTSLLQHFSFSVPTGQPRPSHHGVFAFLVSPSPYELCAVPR
Sequence of Cytochrome P450 2D6 (P10635 whole entry): as above

With `CN(C/C=C/C#CC(C)(C)C)Cc1cccc2ccccc12` the Activity (Trichophyton rubrum [1]) was “inactive” and the Activity [2] was “inactive”.

`CCCCC(NC)C(=O)NCCc1ccc(-c2ccc(Cl)c(Cl)c2)cc1.Cl` (racemic) gave an MIC (Cryptococcus neoformans [3]) of 4 µg/mL, an MIC (Candida albicans [4]) of 8 µg/mL and an MIC (Nakaseomyces glabratus [5]) of 8 µg/mL. For the same compound, the MIC (Aspergillus fumigatus) was 8 µg/mL, the remaining at 0.5 h [6] was over 85% and the Stability [7] was “Unstable”. The Stability [8] was “Unstable”.

Work on `CCCCC(N)C(=O)NCCc1ccc(-c2ccc(Cl)c(Cl)c2)cc1.Cl` (racemic) yielded an MIC (Cryptococcus neoformans [3]) of 1 µg/mL, an MIC (Candida albicans [4]) of 2 µg/mL and an MIC (Nakaseomyces glabratus [5]) of 4 µg/mL. For the same compound, the MIC (Aspergillus fumigatus) was 4 µg/mL, the inhibition at 10 µM (CYP3A4) was over 70% and the inhibition at 10 µM (CYP2C19) was over 70%. The inhibition at 10 µM (CYP2D6) was over 70% and the remaining at 0.5 h [6] was over 85%.

For `CCCC(N)C(=O)NCCc1ccc(OCc2ccc(C(F)(F)F)cc2)cc1.Cl` (racemic), the “inhibition (INH)” value (Cytochrome P450 2C9) was over 70%, the “inhibition (INH)” value (Cytochrome P450 3A4) was over 70% and the MIC (Cryptococcus neoformans [3]) was 16 µg/mL. For the same compound, the MIC (Candida albicans [4]) was 16 µg/mL, the MIC (Nakaseomyces glabratus [5]) was 32 µg/mL and the MIC (Aspergillus fumigatus) was 32 µg/mL.

In the case of `CCCC(NC)C(=O)NCCc1ccc(-c2ccc(C(F)(F)F)cc2)cc1.Cl` (racemic), the “inhibition (INH)” value (Cytochrome P450 2C9) is reported as “Not Active”, the “inhibition (INH)” value (Cytochrome P450 2D6) is reported as “Active” and the “inhibition (INH)” value (Cytochrome P450 3A4) is reported as “Not Active”. The MIC (Cryptococcus neoformans [3]) was 16 µg/mL, the MIC (Candida albicans [4]) was 32 µg/mL and the MIC (Nakaseomyces glabratus [5]) was 32 µg/mL. The MIC (Aspergillus fumigatus) was 32 µg/mL.

With `CCCC(NC)C(=O)NCCc1ccc(-c2ccc(Cl)c(Cl)c2)cc1.Cl` (racemic) the MIC (Cryptococcus neoformans [3]) was 4 µg/mL, the MIC (Candida albicans [4]) was 16 µg/mL and the MIC (Nakaseomyces glabratus [5]) was 16 µg/mL. For the same compound, the MIC (Aspergillus fumigatus) was 8 µg/mL, the remaining at 0.5 h [6] was over 85% and the Stability [7] was “Unstable”. The Stability [8] was “Unstable”, the Stability [9] was over 95% and the Stability [10] was over 95%.

`C[C@@H]1[C@H](O)[C@@H](C)/C=C/C=C/C=C/C=C/C=C/C=C/C=C/[C@H](O[C@@H]2O[C@H](C)[C@@H](O)[C@H](N)[C@@H]2O)C[C@@H]2O[C@](O)(C[C@@H](O)C[C@@H](O)[C@H](O)CC[C@@H](O)C[C@@H](O)CC(=O)O[C@H]1C)C[C@H](O)[C@H]2C(=O)O` [AMPHOTERICIN B] showed an MIC (Cryptococcus neoformans [3]) of 0.25 µg/mL (≈ 0.271 µM), an MIC (Candida albicans [4]) of 0.25 µg/mL (≈ 0.271 µM) and an MIC (Nakaseomyces glabratus [5]) of 0.5 µg/mL (≈ 0.541 µM). The MIC (Aspergillus fumigatus) was 1 µg/mL (≈ 1.08 µM) and the Activity (Cryptococcus neoformans [11]) was “Active”.

In the case of `Cc1cc(C2CCCCC2)n(O)c(=O)c1` [CICLOPIROX], the Activity (Trichophyton rubrum [1]) is reported as “inactive”, the Activity [2] is reported as “inactive” and the Activity (Trichophyton rubrum [12]) is reported as 24.21%.

With `C=C1CCN([C@H](C)[C@](O)(Cn2cncn2)c2ccc(F)cc2F)CC1` [EFINACONAZOLE] the Activity (Cryptococcus neoformans [13]) was “inactive”, the Activity (Candida albicans [14]) was “Active” and the IC50 (Nakaseomyces glabratus [15]) was 1 µg/mL (≈ 2.87 µM). For the same compound, the Activity (Candida albicans [16]) was “Active”, the Activity (Candida albicans [17]) was “Active” and the Activity (Nakaseomyces glabratus [18]) was “Active”. For the same compound, the Activity (Trichophyton rubrum [12]) was 31.9%.

For `OC(Cn1cncn1)(Cn1cncn1)c1ccc(F)cc1F` [FLUCONAZOLE], the Activity (Cryptococcus neoformans [13]) was “inactive”, the IC50 (Candida albicans [19]) was 64 µg/mL (≈ 209 µM) and the IC50 (Nakaseomyces glabratus [20]) was 64 µg/mL (≈ 209 µM). The Activity (Candida albicans [21]) was “Active” and the Activity (Nakaseomyces glabratus [22]) was “Active”.
